Source: ChEMBL document CHEMBL1156812, “Novel synthesis of the hexahydroimidazo[1,5b]isoquinoline scaffold: application to the synthesis of glucocorticoid receptor modulators” (J Med Chem, 2010)

Tests used:
Glucocorticoid receptor [1] = target: T1, Glucocorticoid receptor (Homo sapiens, UniProt P04150); experiment: Displacement of GS-red from human glucocorticoid receptor by fluorescent polarization assay
T1 sequence (P04150 whole entry): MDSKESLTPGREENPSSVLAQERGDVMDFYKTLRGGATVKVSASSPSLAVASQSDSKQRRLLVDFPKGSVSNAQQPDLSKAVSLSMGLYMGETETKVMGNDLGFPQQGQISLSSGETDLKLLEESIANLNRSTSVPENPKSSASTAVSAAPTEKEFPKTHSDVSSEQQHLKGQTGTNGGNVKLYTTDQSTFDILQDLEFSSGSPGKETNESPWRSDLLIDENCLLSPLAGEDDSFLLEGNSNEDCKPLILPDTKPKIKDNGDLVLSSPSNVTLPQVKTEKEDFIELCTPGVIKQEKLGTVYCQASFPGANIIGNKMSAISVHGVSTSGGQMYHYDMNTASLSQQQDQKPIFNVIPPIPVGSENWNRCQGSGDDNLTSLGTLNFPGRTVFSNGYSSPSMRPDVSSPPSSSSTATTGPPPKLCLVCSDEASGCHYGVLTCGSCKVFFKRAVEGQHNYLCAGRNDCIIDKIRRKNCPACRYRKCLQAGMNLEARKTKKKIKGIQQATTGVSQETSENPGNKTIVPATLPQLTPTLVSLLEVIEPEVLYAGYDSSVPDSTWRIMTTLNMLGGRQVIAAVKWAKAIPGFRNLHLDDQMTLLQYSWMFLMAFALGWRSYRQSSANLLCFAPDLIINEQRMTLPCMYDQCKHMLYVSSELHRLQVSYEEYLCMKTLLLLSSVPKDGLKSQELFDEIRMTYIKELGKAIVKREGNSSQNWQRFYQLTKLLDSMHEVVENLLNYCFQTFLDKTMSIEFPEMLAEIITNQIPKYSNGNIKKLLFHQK

Glucocorticoid receptor [2] = target: T1, Glucocorticoid receptor; experiment: Transrepression activity at glucocorticoid receptor expressed in human A549 cells assessed as inhibition of PMA-induced AP1 activity after 6 hrs by luciferase reporter gene assay; format: cell-based
Glucocorticoid receptor [3] = target: T1, Glucocorticoid receptor; experiment: Transrepression activity at glucocorticoid receptor expressed in human A549 cells assessed as inhibition of IL-1-beta-induced NF-kappaB dependent E-selection promoter activation after 6 hrs by luciferase reporter gene based ELAM assay; format: cell-based
Glucocorticoid receptor [4] = target: T1, Glucocorticoid receptor; experiment: Transactivation of GAL-4 tagged glucocorticoid receptor ligand binding domain expressed in human HeLa cells assessed as NP1 activation by luciferase reporter gene assay; format: cell-based
Androgen receptor = target: T2, Androgen receptor (Homo sapiens, UniProt P10275); experiment: Binding affinity to androgen receptor
T2 sequence (P10275 whole entry): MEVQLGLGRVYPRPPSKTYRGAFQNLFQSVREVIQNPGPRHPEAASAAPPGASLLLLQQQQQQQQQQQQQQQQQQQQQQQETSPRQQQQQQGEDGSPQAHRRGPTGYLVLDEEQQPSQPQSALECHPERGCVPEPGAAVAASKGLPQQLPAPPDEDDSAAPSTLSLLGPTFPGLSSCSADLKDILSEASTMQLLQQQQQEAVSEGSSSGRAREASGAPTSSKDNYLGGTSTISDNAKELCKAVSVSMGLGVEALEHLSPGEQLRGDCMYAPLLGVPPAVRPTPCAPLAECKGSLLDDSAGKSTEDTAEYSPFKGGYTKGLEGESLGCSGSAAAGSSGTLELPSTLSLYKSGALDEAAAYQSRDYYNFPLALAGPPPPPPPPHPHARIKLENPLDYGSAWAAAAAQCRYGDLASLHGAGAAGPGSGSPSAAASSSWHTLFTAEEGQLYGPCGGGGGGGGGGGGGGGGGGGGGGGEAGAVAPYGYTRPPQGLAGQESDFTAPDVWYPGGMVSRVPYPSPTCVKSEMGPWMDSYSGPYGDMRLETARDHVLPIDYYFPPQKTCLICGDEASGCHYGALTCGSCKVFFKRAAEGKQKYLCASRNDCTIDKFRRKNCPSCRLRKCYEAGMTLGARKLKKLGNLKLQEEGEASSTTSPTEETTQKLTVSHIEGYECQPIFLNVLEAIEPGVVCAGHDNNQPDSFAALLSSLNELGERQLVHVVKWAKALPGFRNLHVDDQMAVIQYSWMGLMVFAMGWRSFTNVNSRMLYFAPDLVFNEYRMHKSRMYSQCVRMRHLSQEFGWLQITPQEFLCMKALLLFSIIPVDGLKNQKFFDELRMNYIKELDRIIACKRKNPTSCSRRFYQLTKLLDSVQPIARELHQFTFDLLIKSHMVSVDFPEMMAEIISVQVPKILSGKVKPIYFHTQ

Progesterone receptor = target: T3, Progesterone receptor (Homo sapiens, UniProt P06401); experiment: Binding affinity to progesterone receptor
T3 sequence (P06401 whole entry): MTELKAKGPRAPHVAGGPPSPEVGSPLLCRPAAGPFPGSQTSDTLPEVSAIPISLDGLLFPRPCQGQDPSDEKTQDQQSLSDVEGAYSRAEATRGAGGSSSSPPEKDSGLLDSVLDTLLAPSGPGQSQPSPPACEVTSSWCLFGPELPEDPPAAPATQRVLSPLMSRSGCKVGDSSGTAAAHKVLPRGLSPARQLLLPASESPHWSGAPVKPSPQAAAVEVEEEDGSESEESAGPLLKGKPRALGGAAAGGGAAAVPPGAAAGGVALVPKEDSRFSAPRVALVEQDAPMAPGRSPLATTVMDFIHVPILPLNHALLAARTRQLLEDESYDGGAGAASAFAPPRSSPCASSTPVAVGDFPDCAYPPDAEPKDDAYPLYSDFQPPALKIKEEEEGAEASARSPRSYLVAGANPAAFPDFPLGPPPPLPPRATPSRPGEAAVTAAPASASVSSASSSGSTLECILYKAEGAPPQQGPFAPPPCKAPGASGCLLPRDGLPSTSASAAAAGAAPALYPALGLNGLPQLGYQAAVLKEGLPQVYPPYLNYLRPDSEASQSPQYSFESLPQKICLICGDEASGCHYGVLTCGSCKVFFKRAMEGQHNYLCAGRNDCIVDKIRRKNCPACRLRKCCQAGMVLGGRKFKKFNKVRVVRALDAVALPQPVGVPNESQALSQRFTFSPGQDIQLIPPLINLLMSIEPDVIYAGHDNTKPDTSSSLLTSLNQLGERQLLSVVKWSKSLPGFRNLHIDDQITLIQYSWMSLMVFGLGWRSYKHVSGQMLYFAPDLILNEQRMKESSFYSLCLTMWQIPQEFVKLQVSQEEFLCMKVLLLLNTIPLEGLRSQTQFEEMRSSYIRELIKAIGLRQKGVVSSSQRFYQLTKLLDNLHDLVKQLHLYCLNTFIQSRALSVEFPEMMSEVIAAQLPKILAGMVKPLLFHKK

[5] = Metabolic stability in human liver microsomes assessed as compound remaining at 3 uM after 10 mins; format: ADME, Microsome; conditions: read-out: Stability
[6] = Metabolic stability in rat liver microsomes assessed as compound remaining at 3 uM after 10 mins; format: ADME, Microsome; conditions: read-out: Stability
[7] = Metabolic stability in mouse liver microsomes assessed as compound remaining at 3 uM after 10 mins; format: ADME, Microsome; conditions: read-out: Stability

Row | SMILES | Ki (Glucocorticoid receptor [1]) | EC50 (Glucocorticoid receptor [2]) | EC50 (Glucocorticoid receptor [3]) | EC50 (Glucocorticoid receptor [4]) | IC50 (Androgen receptor) | Ki (Progesterone receptor) | remaining at 10 min, 3 µM [5] | remaining at 10 min, 3 µM [6] | remaining at 10 min, 3 µM [7]
1 | C=CC[C@@](C)(O)[C@H]1CCCC2=Cc3c(-c4ccc(F)cc4)ncn3C[C@@]21C | 4.3 nM | 57 nM | 79 nM | > 5000 nM | > 4000 nM | 1810 nM |  |  | 
2 | C[C@]12Cn3cnc(-c4ccc(F)cc4)c3C=C1CCC[C@@H]2[C@](C)(O)c1ccc(Cl)cc1 | 2 nM | 7.5 nM | 19 nM | 697 nM | > 4000 nM | 238 nM | 56% | 51% | 73%
3 | Cc1ccsc1[C@@](C)(O)[C@H]1CCCC2=Cc3c(-c4ccc(F)cc4)ncn3C[C@@]21C | 2 nM | 29 nM | 30 nM | 380 nM | > 4000 nM | 132 nM | 3% | 2% | 21%
